# Reference: patent publication US9493483B2, “Benzo [C] isoxazoloazepine bromodomain inhibitors and uses thereof” (Constellation Pharmaceuticals, Inc., priority 2012, dated 2016)
# Read-outs that look alike come from different tables or passages of the source.
# Legend:
# [1] = biological target: BRD4(BD1) (Homo sapiens (Human), UniProt O60885); assay: BRD4 AlphaLisa binding assay; conditions: BRD4(BD1) 30 nM, H4-tetraacetyl peptide 200 nM; read-out: AlphaScreen IC50
# Procedure: IC50 Measurements for Inhibitors Using BRD4 AlphaLisa Binding Assay
# His/Flag epitope tagged BRD4 BD142-168 was cloned, expressed and purified to homogeneity. BRD4 binding and inhibition was assessed by monitoring the engagement of biotinylated H4-tetraacetyl peptide (Millipore #12-379) with the target using the AlphaLisa technology (Perkin-Elmer). Specifically, in a 384 well ProxiPlate BRD4(BD1) (30 nM final) was combined with peptide (200 nM final) in 40 mM HEPES (pH 7.0), 40 mM NaCl, 1 mM DTT, 0.01% (w/v) BSA, and 0.008% (w/v) Brij-35 either in the presence of DMSO (final 1.2% DMSO) or compound dilution series in DMSO. After 20 minute incubation at room temperature Alpha streptavidin donor beads and AlphaLisa anti-Flag acceptor beads were added to a final concentration of 10 ug/mL each. After three hours equilibration plates were read on an Envision instrument and IC50s calculated using a four parameter non-linear curve fit.
# [2] = test system: IL-6 secretion in LPS-stimulated THP-1 cells; assay: Cell-based IL-6 quantification assay (ELISA, Mesoscale); conditions: LPS 4 μg/mL, 16 h, read-out: IL-6 Cellular EC50
# Procedure: Cell-Based IL-6 Quantification Assay (ELISA, Mesoscale Assay):
# 100,000 THP-1 cells were seeded in RPMI1640-10% FBS in 96-well plates. LPS (E. Coli Invitrogen) in RPMI-10% FBS at a final concentration of 4 μg/mL was added to the wells and the cells are then incubated in the presence of various concentrations of compounds for 16 h. Plates are spun ([…], 5 min), an aliquot of 25 uL supernatant is transferred in to an ELISA plate (Mesoscale technology, MSD) and the detection of IL-6 is performed using manufacturer's instructions. The amount of cells in each well is assessed using CellTiter-Glo® (Promega). The ratio of ELISA value/CellTiter-Glo value is used to calculate the percent of inhibition of IL-6 secretion.
# [3] = test system: MYC mRNA in MV4:11 (AML) or Raji (Burkitt's lymphoma) cells; assay: cMyc RNA quantification assay (QuantiGene); format: cell-based; conditions: MV4:11 or Raji cells, 4 h; read-out: MYC Cellular EC50
# Procedure: cMyc RNA Quantification Assay (QuantiGene® Assay):
# MV4:11 (AML) or Raji (Burkitt's lymphoma) cells were seeded in a 96-well plate and incubated in the presence of various concentrations of compounds for 4 h. Relative mRNA levels were quantitated by using QuantiGene 2.0 assay (Affymetrix) according to the manufacturer's recommendation. Signals were detected by using an Envision plate reader (Perkin-Elmer). Biological duplicates were averaged and normalized to vehicle (DMSO) control to calculate percent MYC mRNA levels.
# [4] = test system: 143B; assay: In vitro cancer cell line growth inhibition (GI50); format: cell-based; conditions: Homo sapiens, Osteosarcoma, 72 hours, resazurin
# Procedure: (§1) Method for GI50 Determination
# (§2) Adherent cells were plated in 96-well plates and the following day compound titrations were added to the cells. Suspensions cells were plated directly in 96-well plates containing compound titrations. Compound titrations were comprised of 9 two-fold dilutions. Cells were incubated for 72 hours before analysis of viability with resazurin. Viability relative to DMSO treated cells was plotted to determine the absolute GI50 values.
# [5] = test system: A2780; assay: In vitro cancer cell line growth inhibition (GI50); format: cell-based; conditions: Homo sapiens; A2780, Ovarian, 72 hours, resazurin
# Procedure: as §1, §2
# [6] = test system: A549; assay: In vitro cancer cell line growth inhibition (GI50); format: cell-based; conditions: Homo sapiens; A549, Lung, 72 hours, resazurin
# Procedure: as §1, §2
# [7] = test system: DB; assay: In vitro cancer cell line growth inhibition (GI50); format: cell-based; conditions: Homo sapiens, DLBCL, 72 hours, resazurin
# Procedure: as §1, §2
# [8] = test system: DLD-1; assay: In vitro cancer cell line growth inhibition (GI50); format: cell-based; conditions: Homo sapiens; DLD-1, Colorectal, 72 hours, resazurin
# Procedure: as §1, §2
# [9] = test system: DOHH2; assay: In vitro cancer cell line growth inhibition (GI50); format: cell-based; conditions: Homo sapiens, DOHH-2; DOHH2, DLBCL, 72 hours, resazurin
# Procedure: as §1, §2
# [10] = test system: H23; assay: In vitro cancer cell line growth inhibition (GI50); format: cell-based; conditions: Homo sapiens, NCI-H23; H23, Lung, 72 hours, resazurin
# Procedure: as §1, §2
# [11] = test system: H526; assay: In vitro cancer cell line growth inhibition (GI50); format: cell-based; conditions: Homo sapiens, NCI-H526; H526, Lung, 72 hours, resazurin
# Procedure: as §1, §2
# [12] = test system: HT29; assay: In vitro cancer cell line growth inhibition (GI50); format: cell-based; conditions: Homo sapiens, HT-29; HT29, Colorectal, 72 hours, resazurin
# Procedure: as §1, §2
# [13] = test system: HT; assay: In vitro cancer cell line growth inhibition (GI50); format: cell-based; conditions: Homo sapiens, DLBCL, 72 hours, resazurin
# Procedure: as §1, §2
# [14] = test system: KARPAS 422; assay: In vitro cancer cell line growth inhibition (GI50); format: cell-based; conditions: Homo sapiens; KARPAS 422, DLBCL, 72 hours, resazurin
# Procedure: as §1, §2
# [15] = test system: KMS11; assay: In vitro cancer cell line growth inhibition (GI50); format: cell-based; conditions: Homo sapiens, KMS-11; KMS11, Multiple myeloma, 72 hours, resazurin
# Procedure: as §1, §2
# [16] = test system: LP1; assay: In vitro cancer cell line growth inhibition (GI50); format: cell-based; conditions: Homo sapiens, LP-1; LP1, Multiple myeloma, 72 hours, resazurin
# Procedure: as §1, §2
# [17] = test system: ML-2; assay: In vitro cancer cell line growth inhibition (GI50); format: cell-based; conditions: Homo sapiens; ML-2, AML, 72 hours, resazurin
# Procedure: as §1, §2
# [18] = test system: MOLM-13; assay: In vitro cancer cell line growth inhibition (GI50); format: cell-based; conditions: Homo sapiens; MOLM-13, AML, 72 hours, resazurin
# Procedure: as §1, §2
# [19] = test system: MV4-11; assay: In vitro cancer cell line growth inhibition (GI50); format: cell-based; conditions: Homo sapiens; MV4-11, AML, 72 hours, resazurin
# Procedure: as §1, §2
# [20] = test system: OCI-LY-19; assay: In vitro cancer cell line growth inhibition (GI50); format: cell-based; conditions: Homo sapiens, OCI-LY19; OCI-LY-19, DLBCL, 72 hours, resazurin
# Procedure: as §1, §2
# [21] = test system: OPM2; assay: In vitro cancer cell line growth inhibition (GI50); format: cell-based; conditions: Homo sapiens, OPM-2; OPM2, Multiple myeloma, 72 hours, resazurin
# Procedure: as §1, §2
# [22] = test system: SU-DHL-10; assay: In vitro cancer cell line growth inhibition (GI50); format: cell-based; conditions: Homo sapiens, SU-DHL10; SU-DHL-10, DLBCL, 72 hours, resazurin
# Procedure: as §1, §2
# [23] = test system: SU-DHL-4; assay: In vitro cancer cell line growth inhibition (GI50); format: cell-based; conditions: Homo sapiens; SU-DHL-4, DLBCL, 72 hours, resazurin
# Procedure: as §1, §2
# [24] = test system: SU-DHL-5; assay: In vitro cancer cell line growth inhibition (GI50); format: cell-based; conditions: Homo sapiens; SU-DHL-5, DLBCL, 72 hours, resazurin
# Procedure: as §1, §2
# [25] = test system: SU-DHL-6; assay: In vitro cancer cell line growth inhibition (GI50); format: cell-based; conditions: Homo sapiens; SU-DHL-6, DLBCL, 72 hours, resazurin
# Procedure: as §1, §2
# [26] = test system: SU-DHL-8; assay: In vitro cancer cell line growth inhibition (GI50); format: cell-based; conditions: Homo sapiens; SU-DHL-8, DLBCL, 72 hours, resazurin
# Procedure: as §1, §2
# [27] = test system: THP-1; assay: In vitro cancer cell line growth inhibition (GI50); format: cell-based; conditions: Homo sapiens; THP-1, AML, 72 hours, resazurin
# Procedure: as §1, §2
# [28] = test system: U2932; assay: In vitro cancer cell line growth inhibition (GI50); format: cell-based; conditions: Homo sapiens; U2932, DLBCL, 72 hours, resazurin
# Procedure: as §1, §2
# [29] = test system: WSU-DLCL-2; assay: In vitro cancer cell line growth inhibition (GI50); format: cell-based; conditions: Homo sapiens, WSUDLCL2; WSU-DLCL-2, DLBCL, 72 hours, resazurin
# Procedure: as §1, §2
# [30] = test system: ZR-75-1; assay: In vitro cancer cell line growth inhibition (GI50); format: cell-based; conditions: Homo sapiens; ZR-75-1, Breast, 72 hours, resazurin
# Procedure: as §1, §2
# [31] = test system: MV4-11 lymphoblast cell subcutaneous xenograft; assay: Tumor growth inhibition in MV4-11 subcutaneous xenograft mouse model; format: in vivo; conditions: female nude mice, all cohorts: 1.5-3 mg/kg SC BID/QD, 3-10 mg/kg PO QD (Table 3)
# Procedure: This study investigated the effects of Compound 401 on tumor growth inhibition in an MV4-11 lymphoblast cell subcutaneous xenograft mouse model.
# A total number of 120 female nude mice were purchased. These mice were allowed 3 days of acclimatization period before experiments started. The cell suspension was carried to the animal room in an ice box. Mice were implanted subcutaneously (s.c.) with 200 μL of 10×10^6 MV4-11 cells in 50% Matrigel in the right flank at the beginning of the study. All the mice were observed everyday to monitor the health and tumor size.
# When tumors reached an average volume of 150-200 mm^3, 100 out of the 120 mice were selected based on their tumor volume and randomly assigned to 10 groups prior to dosing. Each group consisted of 10 tumor-bearing mice (n=10/group).
# Tumor-bearing mice were treated with Compound 401 or vehicle, by subcutaneous injection (5 mL/kg) or oral dose (10 mL/kg) starting on the day after randomization for 29 days according to Table 3.
# Mice were weighed at each dosing and recorded every day. Mice were observed closely for any overt signs of adverse, treatment-related side effects, which if any were recorded. […] Tumor size was measured three times a week in two dimensions using a caliper, and the tumor volume (V) was expressed in mm^3 using the formula: V=0.5 a×b^2 where a and b were the long and short diameters of the tumor, respectively. […]
compound,measurement,setting,value
"Cc1noc2c1-c1ccc(-c3cnn(C)c3)cc1C(c1ccc(Cl)cc1)=N[C@H]2CC(N)=O [Compound 401, 2-((4S)-6-(4-Chlorophenyl)-1-methyl-8-(1-methyl-1H-pyrazol-4-yl)-4H-benzo[c]isoxazolo[4,5-e]azepin-4-yl)acetamide]",IC50,[1],14 nM
same,EC50,[2]; Homo sapiens,15 nM
same,EC50,[3],13 nM
same,GI50,[4],230 nM
same,GI50,[5],90 nM
same,GI50,[6],460 nM
same,GI50,[7],150 nM
same,GI50,[8],480 nM
same,GI50,[9],60 nM
same,GI50,[10],210 nM
same,GI50,[11],10 nM
same,GI50,[12],200 nM
same,GI50,[13],100 nM
same,GI50,[14],20 nM
same,GI50,[15],100 nM
same,GI50,[16],5 nM
same,GI50,[17],60 nM
same,GI50,[18],90 nM
same,GI50,[19],15 nM
same,GI50,[20],60 nM
same,GI50,[21],10 nM
same,GI50,[22],100 nM
same,GI50,[23],150 nM
same,GI50,[24],325 nM
same,GI50,[25],60 nM
same,GI50,[26],100 nM
same,GI50,[27],65 nM
same,GI50,[28],625 nM
same,GI50,[29],45 nM
same,GI50,[30],300 nM
same,tumor volume reduction,[31],Statistically significant reductions in tumor volumes
Cc1noc2c1-c1ccc(-c3cnn(C)c3)cc1C(c1ccc(Cl)cc1)=N[C@H]2CC(=O)N(C)C [Compound 402],IC50,[1],13 nM
same,EC50,[2]; Homo sapiens,7 nM
same,EC50,[3],23 nM
Cc1noc2c1-c1ccc(-c3cnn(C)c3)cc1C(c1ccc(Cl)cc1)=N[C@H]2CC(=O)O [Compound 405],IC50,[1],175 nM
same,EC50,[2]; Homo sapiens,420 nM
same,EC50,[3],833 nM
Cc1ccc(-c2ccc3c(c2)C(c2ccc(Cl)cc2)=N[C@@H](CC(N)=O)c2onc(C)c2-3)cn1 [Compound 403],IC50,[1],28 nM
same,EC50,[2]; Homo sapiens,29 nM
same,EC50,[3],36 nM
"Cc1noc(-c2ccc3c(c2)C(c2ccc(Cl)cc2)=N[C@@H](CC(N)=O)c2onc(C)c2-3)n1 [Compound 404, 2-((4S)-6-(4-chlorophenyl)-1-methyl-8-(3-methyl-1,2,4-oxadiazol-5-yl)-4H-benzo[c]isoxazolo[4,5-e]azepin-4-yl)acetamide]",IC50,[1],270 nM
same,EC50,[2]; Homo sapiens,36 nM
same,EC50,[3],206 nM
"Cc1noc2c1-c1ccc(-c3cnn(C)c3)cc1C(c1ccc(Cl)cc1)=N[C@H]2CC(N)=O [Compound 400, 2-((4S)-6-(4-chlorophenyl)-1-methyl-8-(1-trideuteromethyl-1H-pyrazol-4-yl)-4H-benzo[c]isoxazolo[4,5-e]azepin-4-yl)-^15N-acetamide]",IC50,[1],18 nM
same,EC50,[2],5 nM
same,EC50,[3],8 nM
